# Test system: serum uric acid (sUA)
# Test: Phase 1 single dose study, pharmacodynamics (serum uric acid) in healthy adult males
# Assay type: in vivo, human
# Experimental: The dose groups included Cohort 1 (15 mg or placebo, fasted, oral suspension), Cohort 2 (50 mg or placebo, fasted, suspension), Cohort 3 (100 mg or placebo, fasted, oral suspension), Cohort 4 (150 mg or placebo, fasted, oral suspension), Cohort 6 (50 mg or placebo, fed, oral suspension), and Cohort 7 (50 mg or placebo, fasted, oral capsule). […] An additional 8 subjects received placebo.
# Decrease in sUA appeared to reach a plateau at 100 mg or lower.
# [1] = 100 mg single oral, fasted, 6 h
# [2] = 100 mg single oral, fasted, 12 h
# [3] = 100 mg single oral, fasted, 24 h
# [4] = 100 mg single oral, fasted, 30 h
# [5] = 100 mg single oral, fasted, 36 h
# [6] = 100 mg single oral, fasted, 48 h
# [7] = 100 mg single oral, fasted, 54 h
# [8] = 100 mg single oral, fasted, 60 h
# [9] = 100 mg single oral, fasted, 72 h
# [10] = 100 mg single oral, fasted, 96 h
# [11] = 100 mg single oral, fasted, 120 h
# [12] = 150 mg single oral, fasted, 6 h
# [13] = 150 mg single oral, fasted, 12 h
# [14] = 150 mg single oral, fasted, 24 h
# [15] = 150 mg single oral, fasted, 30 h
# [16] = 150 mg single oral, fasted, 36 h
# [17] = 150 mg single oral, fasted, 48 h
# [18] = 150 mg single oral, fasted, 54 h
# [19] = 150 mg single oral, fasted, 60 h
# [20] = 150 mg single oral, fasted, 72 h
# [21] = 150 mg single oral, fasted, 96 h
# [22] = 150 mg single oral, fasted, 120 h
# [23] = single oral dose, 50 mg or higher, fasted
smiles,measurement,setting,value
"[2H]c1c([2H])c([2H])c2c(C(=O)c3cc(Br)c(O)c(Br)c3)c(C(C)O)oc2c1[2H] (racemic) [Compound 1, (3,5-dibromo-4-hydroxyphenyl)(2-(1-hydroxyethyl)benzofuran-3-yl-4,5,6,7-d4)methanone]","Percent change in serum uric acid, mean, time-matched (Day-1) baseline","50 mg single oral, fed, 12 h",−37.7%
same,"Serum uric acid, mean","50 mg single oral, fed, 12 h",3.9 mg/dL
same,"Percent change in serum uric acid, mean, time-matched (Day-1) baseline","50 mg single oral, fed, 24 h",−41.9%
same,"Serum uric acid, mean","50 mg single oral, fed, 24 h",3.8 mg/dL
same,"Percent change in serum uric acid, mean, time-matched (Day-1) baseline","50 mg single oral, fed, 30 h",−40.1%
same,"Serum uric acid, mean","50 mg single oral, fed, 30 h",3.6 mg/dL
same,"Percent change in serum uric acid, mean, time-matched (Day-1) baseline","50 mg single oral, fed, 36 h",−37.4%
same,"Serum uric acid, mean","50 mg single oral, fed, 36 h",3.9 mg/dL
same,"Percent change in serum uric acid, mean, time-matched (Day-1) baseline","50 mg single oral, fed, 48 h",−32.6%
same,"Serum uric acid, mean","50 mg single oral, fed, 48 h",4.4 mg/dL
same,"Percent change in serum uric acid, mean, time-matched (Day-1) baseline","50 mg single oral, fed, 54 h",−29.8%
same,"Serum uric acid, mean","50 mg single oral, fed, 54 h",4.2 mg/dL
same,"Percent change in serum uric acid, mean, time-matched (Day-1) baseline","50 mg single oral, fed, 60 h",−31.3%
same,"Serum uric acid, mean","50 mg single oral, fed, 60 h",4.3 mg/dL
same,"Percent change in serum uric acid, mean, time-matched (Day-1) baseline","50 mg single oral, fed, 72 h",−23.3%
same,"Serum uric acid, mean","50 mg single oral, fed, 72 h",5.0 mg/dL
same,"Percent change in serum uric acid, mean, time-matched (Day-1) baseline","50 mg single oral, fed, 96 h",−10.9%
same,"Serum uric acid, mean","50 mg single oral, fed, 96 h",5.8 mg/dL
same,"Percent change in serum uric acid, mean, time-matched (Day-1) baseline","50 mg single oral, fed, 120 h",−5.8%
same,"Serum uric acid, mean","50 mg single oral, fed, 120 h",6.1 mg/dL
same,sUA reduction with versus without food,"50 mg single oral, throughout 120 hours post-dose",no difference observed
same,"Percent change in serum uric acid, mean, time-matched (Day-1) baseline",[1],−31.6%
same,"Serum uric acid, mean",[1],3.5 mg/dL
same,"Percent change in serum uric acid, mean, time-matched (Day-1) baseline",[2],−48.2%
same,"Serum uric acid, mean",[2],2.6 mg/dL
same,"Percent change in serum uric acid, mean, time-matched (Day-1) baseline",[3],−58.8%
same,"Serum uric acid, mean",[3],2.3 mg/dL
same,"Percent change in serum uric acid, mean, time-matched (Day-1) baseline",[4],−58.2%
same,"Serum uric acid, mean",[4],2.2 mg/dL
same,"Percent change in serum uric acid, mean, time-matched (Day-1) baseline",[5],−52.9%
same,"Serum uric acid, mean",[5],2.4 mg/dL
same,"Percent change in serum uric acid, mean, time-matched (Day-1) baseline",[6],−47.4%
same,"Serum uric acid, mean",[6],2.9 mg/dL
same,"Percent change in serum uric acid, mean, time-matched (Day-1) baseline",[7],−45.7%
same,"Serum uric acid, mean",[7],2.8 mg/dL
same,"Percent change in serum uric acid, mean, time-matched (Day-1) baseline",[8],−37.5%
same,"Serum uric acid, mean",[8],3.1 mg/dL
same,"Percent change in serum uric acid, mean, time-matched (Day-1) baseline",[9],−38.7%
same,"Serum uric acid, mean",[9],3.4 mg/dL
same,"Percent change in serum uric acid, mean, time-matched (Day-1) baseline",[10],−17.3%
same,"Serum uric acid, mean",[10],4.6 mg/dL
same,"Percent change in serum uric acid, mean, time-matched (Day-1) baseline",[11],−3.8%
same,"Serum uric acid, mean",[11],5.4 mg/dL
same,"Percent change in serum uric acid, mean, time-matched (Day-1) baseline",[12],−36.2%
same,"Serum uric acid, mean",[12],3.7 mg/dL
same,"Percent change in serum uric acid, mean, time-matched (Day-1) baseline",[13],−50.4%
same,"Serum uric acid, mean",[13],2.6 mg/dL
same,"Percent change in serum uric acid, mean, time-matched (Day-1) baseline",[14],−59.3%
same,"Serum uric acid, mean",[14],2.5 mg/dL
same,"Percent change in serum uric acid, mean, time-matched (Day-1) baseline",[15],−59.1%
same,"Serum uric acid, mean",[15],2.3 mg/dL
same,"Percent change in serum uric acid, mean, time-matched (Day-1) baseline",[16],−55.6%
same,"Serum uric acid, mean",[16],2.4 mg/dL
same,"Percent change in serum uric acid, mean, time-matched (Day-1) baseline",[17],−53.8%
same,"Serum uric acid, mean",[17],2.8 mg/dL
same,"Percent change in serum uric acid, mean, time-matched (Day-1) baseline",[18],−49.5%
same,"Serum uric acid, mean",[18],2.9 mg/dL
same,"Percent change in serum uric acid, mean, time-matched (Day-1) baseline",[19],−40.8%
same,"Serum uric acid, mean",[19],3.1 mg/dL
same,"Percent change in serum uric acid, mean, time-matched (Day-1) baseline",[20],−37.1%
same,"Serum uric acid, mean",[20],3.8 mg/dL
same,"Percent change in serum uric acid, mean, time-matched (Day-1) baseline",[21],−25.9%
same,"Serum uric acid, mean",[21],4.5 mg/dL
same,"Percent change in serum uric acid, mean, time-matched (Day-1) baseline",[22],−15.4%
same,"Serum uric acid, mean",[22],5.2 mg/dL
same,onset of sUA lowering effect,[23],6 hours post-dose
same,time of sUA nadir,[23],24-36 hours post-dose
same,time sUA remained lower than baseline levels,[23],up to 72 hours post-dose
same,dose at which decrease in sUA appeared to reach a plateau,"single oral dose, fasted",≤ 100 mg
